Patent publication US11485728B2, “Small molecules for the treatment of autoimmune diseases and cancer” (Athos Therapeutics, Inc., priority 2020, dated 2022)

How the values were obtained:
CYP2D6 = biological target: T1, CYP2D6 (Homo sapiens, UniProt P10635); assay: CYP-direct inhibition, CYP2D6; format: in vitro ADME; settings: human liver microsome; substrate dextromethorphan; read-out: IC50 CYP-2D6
T1 construct: from tissue; host or cells: pooled human liver microsomes
Method: (§1) Many drugs inhibit cytochrome P450 enzymes to cause clinically significant changes in the pharmacokinetics of other drugs. In vitro cytochrome P450 inhibition, can provide crucial information in evaluating potential clinical drug-drug interactions and is useful for focusing in vivo tests to areas of concern. The cytochrome P450 inhibition assay was developed by preparing a working cocktail solution consisting of six probe substrates 10 μM ethoxy-resorufin (CYP1A2), 100 μM rosiglitazone (CYP2C8), 50 μM diclofenac (CYP2C9), 300 μM S-mephenytoin (CYP2C19), 50 μM dextromethorphan (CYP2D6), and 20 μM midazolam (CYP3A4). A mixture solution consists of 140 uL of 0.286 mg/mL of pooled human liver microsome working solution and 20 uL working solutions of test articles, standard control inhibitors, or positive control placebo and 20 uL of substrate cocktail mixture working solution was prepared. The mixture solution was pre-warm in a gentle shaking bath at 37±2° C. for 5 minutes. The enzymatic reaction started by adding 20 uL of NRS working solution to the mixture solution and incubated for 10 minutes at 37±2° C. To stop the reaction, an addition of 400 μL cold stop solution (acetonitrile containing 50 ng/mL Tolbutamide as an internal standard (I.Std.) was added to the mixture solution. The final concentration of test article, inhibitors, substrates, and cofactors are noted in Table 0.1 below. Two individual samples were prepared for each test compound. The extracted samples were vortexed and then centrifuged at 4500 rpm for 7 minutes using Eppendorf Centrifuge 5910R. 200 uL of supernatant was diluting with 200 uL of 50% Methanol into 96-DW plate for LC/MS/MS analysis
(§2) Concentration-response plots are used to determine the effects of an inhibitor on an enzymatic reaction. A typical concentration-response plot provides fractional activity (Y axis) is plotted as a function of log inhibitor concentration (X axis). The data are fitted using a standard Sigmoidal dose-response equation which is also called a […] logistic equation. The concentration of compound that results in 50% inhibition of maximal activity is termed as the IC50 (inhibitor concentration yielding 50% inhibition). IC50 value is calculated using Prism GraphPad software, version 9. […].
(§3) Cytochrome P450 inhibition of a drug is a key factor in determining pharmacokinetic drug-drug interactions. The objective of this study was to evaluate the inhibition potential of G9a inhibitors on six (6) major human cytochrome P450 enzymes, including CYP1A2, CYP2C8, CYP2C9, CYP2C19, CYP2D6, and CYP3A4. Inhibition was determined by using a substrate cocktail and analyzing the rate of specific metabolites formation. The cytochrome P450 inhibition assay was developed using a cocktail consisting of six (6) probe substrates ethoxy-resorufin (CYP1A2), rosiglitazone (CYP2C8), diclofenac (CYP2C9), S-mephenytoin (CYP2C19), dextromethorphan (CYP2D6), and midazolam (CYP3A4). The cocktail was incubated in human liver microsome with NADPH regenerating system (NRS) in a shaking bath at 37±2° C. The formation of specific metabolites was monitored by LC/MS/MS. Test compound was added to the cocktail-liver microsome mixture at varying concentrations and its effect on cytochrome P450 activity was determined by analyzing the rate of specific metabolite formation. The percent inhibition was calculated and plotted with reference to the concentration, and the IC50 value for inhibition was derived by fitting the data with a using log(inhibitor) vs. normalized response with variable slope least squares fit by Graphpad Prism® software. […].

PAMPA permeability = settings: PAMPA, 5 hours at RT
CYP3A4 = biological target: T2, CYP3A4 (Homo sapiens, UniProt P08684); assay: CYP-direct inhibition, CYP3A4; format: in vitro ADME
T2 construct: from tissue; host or cells: pooled human liver microsomes
T2 sequence (P08684 whole entry): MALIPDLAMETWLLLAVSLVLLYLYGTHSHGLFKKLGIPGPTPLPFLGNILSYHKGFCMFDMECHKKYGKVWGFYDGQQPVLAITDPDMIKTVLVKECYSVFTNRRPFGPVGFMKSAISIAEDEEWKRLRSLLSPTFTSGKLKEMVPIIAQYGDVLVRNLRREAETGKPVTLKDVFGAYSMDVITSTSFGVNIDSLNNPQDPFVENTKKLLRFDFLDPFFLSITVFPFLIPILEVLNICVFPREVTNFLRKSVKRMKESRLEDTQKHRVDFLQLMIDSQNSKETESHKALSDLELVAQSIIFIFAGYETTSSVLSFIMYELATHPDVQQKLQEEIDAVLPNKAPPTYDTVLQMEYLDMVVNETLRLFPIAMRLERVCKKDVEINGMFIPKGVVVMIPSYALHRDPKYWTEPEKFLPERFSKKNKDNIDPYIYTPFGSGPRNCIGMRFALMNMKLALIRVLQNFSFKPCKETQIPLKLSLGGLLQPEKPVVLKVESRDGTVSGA
Method: as §1, §2, §3

CYP2C9 = biological target: T3, CYP2C9 (Homo sapiens, UniProt P11712); assay: CYP-direct inhibition, CYP2C9; format: in vitro ADME
T3 construct: from tissue; host or cells: pooled human liver microsomes
T3 sequence (P11712 whole entry): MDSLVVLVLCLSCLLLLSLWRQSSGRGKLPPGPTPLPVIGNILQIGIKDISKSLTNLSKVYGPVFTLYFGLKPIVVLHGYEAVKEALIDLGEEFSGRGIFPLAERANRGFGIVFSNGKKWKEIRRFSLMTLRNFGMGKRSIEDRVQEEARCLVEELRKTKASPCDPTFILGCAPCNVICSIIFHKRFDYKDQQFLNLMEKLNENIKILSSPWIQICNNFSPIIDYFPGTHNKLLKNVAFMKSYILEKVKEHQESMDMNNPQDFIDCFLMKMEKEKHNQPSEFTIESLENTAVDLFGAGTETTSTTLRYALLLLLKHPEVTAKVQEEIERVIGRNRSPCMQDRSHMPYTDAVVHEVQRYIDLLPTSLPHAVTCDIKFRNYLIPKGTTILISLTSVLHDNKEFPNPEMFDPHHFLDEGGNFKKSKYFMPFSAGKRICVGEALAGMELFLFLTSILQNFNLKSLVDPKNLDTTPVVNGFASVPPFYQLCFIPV
Method: as §1, §2, §3

[1] = In-vitro half-life in rat liver microsomes; format: in vitro ADME; settings: Rat liver microsomes 0.5 mg/mL; 1 μg/mL drug; NRS; read-out: Metabolic Half-life
Outline: (§4)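 Compound at 1 μg/mL final was incubated with 0.5 mg/mL liver microsomes plus NADPH regenerating system at 37° C, sampled in duplicate at 0–60 min. Remaining parent was measured by LC-MS/MS, and half-life was calculated from first-order log-linear regression of % remaining versus time.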

CYP2C19 = biological target: T4, CYP2C19 (Homo sapiens, UniProt P33261); assay: CYP-direct inhibition, CYP2C19; format: in vitro ADME
T4 construct: from tissue; host or cells: pooled human liver microsomes
T4 sequence (P33261 whole entry): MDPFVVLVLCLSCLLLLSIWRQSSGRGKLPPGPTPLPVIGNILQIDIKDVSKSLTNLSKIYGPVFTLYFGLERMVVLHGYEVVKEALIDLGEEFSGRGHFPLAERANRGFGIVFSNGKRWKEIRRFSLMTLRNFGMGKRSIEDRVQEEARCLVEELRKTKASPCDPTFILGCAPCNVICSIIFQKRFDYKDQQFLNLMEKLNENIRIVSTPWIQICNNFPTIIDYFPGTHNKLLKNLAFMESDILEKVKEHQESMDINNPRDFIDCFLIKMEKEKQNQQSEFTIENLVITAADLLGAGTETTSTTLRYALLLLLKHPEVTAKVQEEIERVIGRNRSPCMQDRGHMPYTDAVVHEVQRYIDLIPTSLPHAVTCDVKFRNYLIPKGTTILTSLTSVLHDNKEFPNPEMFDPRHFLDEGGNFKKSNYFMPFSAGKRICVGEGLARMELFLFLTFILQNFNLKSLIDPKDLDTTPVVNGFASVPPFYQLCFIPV
Method: as §1, §2, §3

[2] = In-vitro half-life in mouse liver microsomes; format: in vitro ADME; settings: Mouse liver microsomes 0.5 mg/mL; 1 μg/mL drug; NRS; read-out: Metabolic Half-life
Outline: as §4

[3] = PAMPA permeability Classification, 20 μM donor
[4] = Permeability, Pe, 20 μM donor in PBS/MeOH 90:10

T1 sequence (P10635 whole entry): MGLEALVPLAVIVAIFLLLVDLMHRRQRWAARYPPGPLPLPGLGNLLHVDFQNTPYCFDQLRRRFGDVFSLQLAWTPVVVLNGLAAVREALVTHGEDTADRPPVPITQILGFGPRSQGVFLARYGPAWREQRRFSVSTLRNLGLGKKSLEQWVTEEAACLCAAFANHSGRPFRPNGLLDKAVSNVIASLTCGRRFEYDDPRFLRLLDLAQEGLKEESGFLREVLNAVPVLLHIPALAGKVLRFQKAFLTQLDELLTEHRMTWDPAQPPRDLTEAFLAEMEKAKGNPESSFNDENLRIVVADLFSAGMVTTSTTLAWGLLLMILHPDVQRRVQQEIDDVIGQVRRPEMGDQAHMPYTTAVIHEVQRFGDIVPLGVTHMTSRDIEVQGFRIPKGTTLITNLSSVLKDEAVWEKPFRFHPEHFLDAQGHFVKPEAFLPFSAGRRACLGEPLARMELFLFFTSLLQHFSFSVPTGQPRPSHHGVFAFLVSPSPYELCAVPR

Structure (SMILES) | IC50 (CYP2D6) | Papp at 5 h, 20 μM (PAMPA permeability; [3]) | Papp at 5 h, 20 μM (PAMPA permeability; [4]) | IC50 (CYP3A4) | IC50 (CYP2C9) | half-life at 1 μg/mL [1] | IC50 (CYP2C19) | half-life at 1 μg/mL [2]
COc1cc2c(NC3CCOCC3)nc(N3CCOCC3)nc2cc1OCCCN1CCCC1 [Compound 195, 6-methoxy-2-morpholino-7-(3-(pyrrolidin-1-yl)propoxy)-N-(tetrahydro-2H-pyran-4-yl)quinazolin-4-amine] | > 100 µM | 0.055 to 1.5 ×10⁻⁶ cm/s | 0.238 ×10⁻⁶ cm/s | > 100 µM | > 100 µM | > 1 h | > 100 µM | > 1 h
COc1cc2c(NC3CCOCC3)nc(N3CCS(=O)(=O)CC3)nc2cc1OCCCN1CCCC1 [Compound 196, 4-(6-methoxy-7-(3-(pyrrolidin-1-yl)propoxy)-4-((tetrahydro-2H-pyran-4-yl)amino)quinazolin-2-yl)thiomorpholine 1,1-dioxide] | 84.8 µM | < 0.055 ×10⁻⁶ cm/s | 0.035 ×10⁻⁶ cm/s | > 100 µM | > 100 µM | > 1 h | > 100 µM | > 1 h
COc1cc2c(NC3CCN(C(C)C)CC3)nc(N3CCC3)nc2cc1OCCCN1CCCC1 [Compound 234, 2-(azetidin-1-yl)-N-(1-isopropylpiperidin-4-yl)-6-methoxy-7-(3-(pyrrolidin-1-yl)propoxy)quinazolin-4-amine] | 77.9 µM | < 0.055 ×10⁻⁶ cm/s | 0.000285 ×10⁻⁶ cm/s | > 100 µM | > 100 µM | > 1 h | > 100 µM | > 1 h
COc1cc2c(NC3CCN(C(C)C)CC3)nc(C#N)nc2cc1OCCCN1CCCC1 [Compound 235, 4-((1-isopropylpiperidin-4-yl)amino)-6-methoxy-7-(3-(pyrrolidin-1-yl)propoxy)quinazoline-2-carbonitrile] | > 100 µM | < 0.055 ×10⁻⁶ cm/s | 0.0046 ×10⁻⁶ cm/s | > 100 µM | > 100 µM | > 1 h | > 100 µM | > 1 h
COc1cc2c(NC3CCS(=O)(=O)CC3)nc(N3CCC(F)(F)CC3)nc2cc1C#CCN1CCCC1 [Compound 248, 4-((2-(4,4-difluoropiperidin-1-yl)-6-methoxy-7-(3-(pyrrolidin-1-yl)prop-1-yn-1-yl)quinazolin-4-yl)amino)tetrahydro-2H-thiopyran 1,1-dioxide] | 55.9 µM | 0.055 to 1.5 ×10⁻⁶ cm/s | 1.32 ×10⁻⁶ cm/s | > 100 µM | > 100 µM | 0.282 h | > 100 µM | > 1 h

Other lines, results leading:

IC50 (CYP2D6) | Papp at 5 h, 20 μM (PAMPA permeability; [3]) | Papp at 5 h, 20 μM (PAMPA permeability; [4]) | IC50 (CYP3A4) | IC50 (CYP2C9) | half-life at 1 μg/mL [1] | IC50 (CYP2C19) | half-life at 1 μg/mL [2] | Structure (SMILES)
24.8 µM | < 0.055 ×10⁻⁶ cm/s | 0.0476 ×10⁻⁶ cm/s | > 100 µM | > 100 µM | > 1 h | > 100 µM | > 1 h | COc1cc2c(NC3CCOCC3)nc(N3CCCC3)nc2cc1OCCCN1CCCC1 [Compound 164, 6-methoxy-2-(pyrrolidin-1-yl)-7-(3-(pyrrolidin-1-yl)propoxy)-N-(tetrahydro-2H-pyran-4-yl)quinazolin-4-amine]
23 µM | 0.055 to 1.5 ×10⁻⁶ cm/s | 0.0754 ×10⁻⁶ cm/s | > 100 µM | > 100 µM | > 1 h | > 100 µM | > 1 h | COc1cc2c(NC3CCOCC3)nc(N3CCC3)nc2cc1OCCCN1CCCC1 [Compound 174, 2-(azetidin-1-yl)-6-methoxy-7-(3-(pyrrolidin-1-yl)propoxy)-N-(tetrahydro-2H-pyran-4-yl)quinazolin-4-amine]
> 100 µM | < 0.055 ×10⁻⁶ cm/s | 0.0299 ×10⁻⁶ cm/s | > 100 µM | > 100 µM | > 1 h | > 100 µM | 0.38 h | COc1cc2c(NC3CCOCC3)nc(N3CCN(C)CC3)nc2cc1OCCCN1CCCC1 [Compound 236, 6-methoxy-2-(4-methylpiperazin-1-yl)-7-(3-(pyrrolidin-1-yl)propoxy)-N-(tetrahydro-2H-pyran-4-yl)quinazolin-4-amine]
86.2 µM | < 0.055 ×10⁻⁶ cm/s | 0.00431 ×10⁻⁶ cm/s | > 100 µM | > 100 µM | 0.367 h | > 100 µM | 0.44 h | COc1cc2c(NC3CCOCC3)nc(N3CCCN(C)CC3)nc2cc1OCCCN1CCCC1 [Compound 237, 6-methoxy-2-(4-methyl-1,4-diazepan-1-yl)-7-(3-(pyrrolidin-1-yl)propoxy)-N-(tetrahydro-2H-pyran-4-yl)quinazolin-4-amine]
